These are literature values, as cited in patent US20120209535A1, “METHOD FOR GENERATING BIOMARKER REFERENCE PATTERNS” (BASF Plant Science Company GmbH, priority 2009, published 2012).

Read-outs that look alike come from different tables or passages of the source.

The conditions of data set [1]: known effect.
For a further data set, the system named is liver. To be noted: known effect.
Another data set has as its system bladder. Particulars: known effect.

`CC(=O)Nc1ccc2c(c1)Cc1ccccc1-2` [2-Acetylaminofluorene]: the immunosuppressant entry in data set [1] is given as “immunosuppressant”. In the data set with liver, the liver carcinogen entry was “liver carcinogen” and the liver enzyme inducer entry is listed as “potent liver enzyme inducer”. Also, the bladder carcinogen result in the data set on bladder is recorded as “bladder carcinogen”.

Turning to `CC(=O)Nc1cccc2c1-c1ccccc1C2` [4-acetylaminofluorene], the immunosuppressant result in data set [1] was “immunosuppressant”. Also, in the data set on liver, the “lipid accumulation in the liver” value is on record as “lipid accumulation in the liver”, the liver carcinogen entry is given as “no liver carcinogen” and the liver enzyme inducer entry is on record as “weak liver enzyme inducer”.

With `CCCCOC(=O)c1ccccc1C(=O)OCCCC` [dibutyl phthalate], the peroxisome proliferation effect result in the data set with peroxisome proliferation is given as “have the abovementioned effect”.

As to `Cc1cc(Cl)ccc1O[C@@H](C)C(=O)O` [mecoprop-p], in the data set on peroxisome proliferation (expert knowledge and/or literature information), the peroxisome proliferation effect result is on record as “have the abovementioned effect”.
